Measured values from patent publication US20080107623A1, “Inhibitors of Hepatitis C Virus” (Bristol-Myers Squibb Company, priority 2006, published 2008).

Biological target: T1, HCV NS3/4A protease complex, BMS strain (UniProt P27958, species not given/STRAIN_BMS)
T1 construct: said of H77 and J4L6S, not expressly of BMS; These are given for the H77 and J4L6S constructs only
Test: FRET peptide assay to monitor HCV NS3/4A proteolytic activity (BMS strain)
Assay type: biochemical, HCV genotype 1a
Settings: NS3/4A BMS strain; read-out: IC50 Activity Range
Description: HCV NS3 protease complexes, derived from the BMS strain, H77 strain or J4L6S strain, were generated, as described below. These purified recombinant proteins were generated for use in a homogeneous assay (see below) to provide an indication of how effective compounds of the present disclosure would be in inhibiting HCV NS3 proteolytic activity.
Serum from an HCV-infected patient was obtained from Dr. T. Wright, San Francisco Hospital. An engineered full-length cDNA (compliment deoxyribonucleic acid) template of the HCV genome (BMS strain) was constructed from DNA fragments obtained by reverse transcription-PCR (RT-PCR) of serum RNA (ribonucleic acid) and using primers selected on the basis of homology between other genotype 1a strains. From the determination of the entire genome sequence, a genotype 1a was assigned to the HCV isolate according to the classification of Simmonds et al. (See P Simmonds, K A Rose, S Graham, S W Chan, F McOmish, B C Dow, E A Follett, P L Yap and H Marsden, J. Clin. Microbiol., 31(6), 1493-1503 (1993)). […] The infectious clones, H77 (1a genotype) and J4L6S (1b genotype) were obtained from R. Purcell (NIH) and the sequences are published in Genbank (AAB67036, see Yanagi, M., Purcell, R. H., Emerson, S. U. and Bukh, J. Proc. Natl. Acad. Sci. U.S.A. 94(16),8738-8743 (1997); AF054247, see Yanagi, M., St Claire, M., Shapiro, M., Emerson, S. U., Purcell, R. H. and Bukh, J, Virology 244 (1), 161-172. (1998)).
NS3/4A protease complex-containing fractions were pooled and loaded on a desalting column Superdex-S200 pre-equilibrated with buffer D (25 mM HEPES, pH 7.5, 20% glycerol, 300 mM NaCl, 0.2% Triton X-100, 10 mM βME). Sample was loaded at a flow rate of 1 mL/min. NS3/4A protease complex-containing fractions were pooled and concentrated to approximately 0.5 mg/ml. The purity of the NS3/4A protease complexes, derived from the BMS, H77 and J4L6S strains, were judged to be greater than 90% by SDS-PAGE and mass spectrometry analyses. The enzyme was stored at −80° C., thawed on ice and diluted prior to use in assay buffer.
The purpose of this in vitro assay was to measure the inhibition of HCV NS3 protease complexes, derived from the BMS strain, H77 strain or J4L6S strain, as described above, by compounds of the present disclosure. This assay provides an indication of how effective compounds of the present disclosure would be in inhibiting HCV NS3 proteolytic activity.
In order to monitor HCV NS3/4A protease activity, an NS3/4A peptide substrate was used. The substrate was RET SI (Resonance Energy Transfer Depsipeptide Substrate; AnaSpec, Inc. cat #22991) (FRET peptide), described by Taliani et al. in Anal. Biochem. 240(2):60-67 (1996). […] The peptide also contains a fluorescence donor, EDANS, near one end of the peptide and an acceptor, DABCYL, near the other end. The fluorescence of the peptide is quenched by […] resonance energy transfer (RET) between the donor and the acceptor, but as the NS3 protease cleaves the peptide the products are released from RET quenching and the fluorescence of the donor becomes apparent.
The peptide substrate was incubated with one of the three recombinant NS3/4A protease complexes, in the absence or presence of a compound of the present disclosure. The inhibitory effects of a compound was determined by monitoring the formation of fluorescent reaction product in real time using a Cytofluor Series 4000. […]

T1 sequence (P27958 1027-1657, change not shown, one chain of several): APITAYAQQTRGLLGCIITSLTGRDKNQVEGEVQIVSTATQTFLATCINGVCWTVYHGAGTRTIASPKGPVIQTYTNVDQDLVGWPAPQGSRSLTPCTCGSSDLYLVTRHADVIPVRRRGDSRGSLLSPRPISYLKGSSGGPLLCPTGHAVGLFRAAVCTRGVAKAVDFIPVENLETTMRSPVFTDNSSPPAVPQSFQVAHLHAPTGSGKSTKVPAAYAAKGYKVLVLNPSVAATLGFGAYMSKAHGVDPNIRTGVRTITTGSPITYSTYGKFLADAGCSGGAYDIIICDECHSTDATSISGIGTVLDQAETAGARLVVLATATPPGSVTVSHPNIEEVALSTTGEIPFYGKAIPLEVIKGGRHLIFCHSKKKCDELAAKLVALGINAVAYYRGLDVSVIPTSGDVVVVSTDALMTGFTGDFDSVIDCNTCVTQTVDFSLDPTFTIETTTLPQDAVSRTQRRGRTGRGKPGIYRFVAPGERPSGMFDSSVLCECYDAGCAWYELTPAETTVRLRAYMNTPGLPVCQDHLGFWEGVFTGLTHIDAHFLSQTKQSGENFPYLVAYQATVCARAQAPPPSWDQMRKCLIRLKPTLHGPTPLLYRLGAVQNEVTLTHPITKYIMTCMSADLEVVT

Work on `COc1c(O[C@@H]2C[C@H]3C(=O)N[C@]4(C(=O)NS(=O)(=O)C5CC5)C[C@H]4/C=C\CCCCC[C@H](NC(=O)OC(C)(C)C)C(=O)N3C2)ccc2c(Cl)nccc12` [Compound 3] yielded an IC50 of under 100 nM.
